How the values were obtained:
MXT mouse mammary tumor [1] = test: Cisplatin-treated MXT mouse mammary tumor model, purified PALP, AT, holo-TF, apo-TF (Example 9, Experiment 2); assay type: in vivo; details: every second day from day 7 (6-times): cisplatin 3-mg/kg i.p., proteins 12-mg/kg s.c.
Source text: (§1) The B16 mouse melanoma and MXT mouse mammary tumors were developed in first generation hybrid BDF1 (C57 B1 female×DBA/2 male) adult female mice kept at specified pathogen free (SPF) hygienic level. These models were chosen for these experiments because these mice have the complete immune system, and both tumors grow very rapidly. To develop the tumors, B16 and MXT tumor tissue fragments of about 0.1-cm^3 were surgically implanted subcutaneously into the intrascapular region to develop the tumors. Each tumor fragment contained about 1-1.5×10^6 cells. The animals were kept in macrolon cages on ventilated rack at 22-24° C. (50-60% humidity) with lighting regimen of 12/12 h light/dark. The animals had free access to tap water and were fed with sterilized standard diet (Charles River VRF1, Germany) ad libitum. The animals were taken care of according to the “Guiding Principle for the care and use of Animals” based upon the Helsinki declaration and they were approved by the local ethical committee.
(§2) In case of both tumor models the tumor size was usually in the range of 0.2 to 0.5-g when treatments started 7-11 days after tumor implantation; the mice were selected so that in the same treatment group the difference in tumor size was no greater than 0.1 gram. In some experiments, the test proteins were suspended in physiological saline and injected in 50-μl volume subcutaneously in the vicinity of tumor (within 1-cm of tumor margin). In other experiments, the test proteins were dispersed in Vaselinum cholesteratum and used topically; 150-mg cream was applied on the tumor and the vicinity of tumor area (with about 0.5-cm of the tumor margin). The tumor volume was determined by using calipers; this technique is well known to one having ordinary skill in the art. Tumor volume was calculated according to the generally accepted formula: V=a^2×b×7r/6, where “a” and “b” mean the shortest and longest diameter, respectively, of the measured tumor.
Experiment 2. The commercial PALP used in this model for Exp. 1 was composed of PALP (˜10%), TF (˜12%), AT (˜30%), albumin (˜35%) and the degradation products of TF (˜13%). […] In this experiment, it was determined whether the other two major proteins, i.e. TF and AT, present in the commercial PALP preparation in addition to PALP, also influence cisplatin-induced loss of body weight or not. The mouse MXT mammary tumor was developed as described in Example 3. In the first group, animals remained untreated during the whole observation period. In the second group, starting on the 7th day after tumor implantation, mice were administered 3-mg per 1-kg of cisplatin i.p. 6-times every second day. In the third group, starting on the 7th day after tumor implantation, mice were simultaneously administered 3-mg per 1-kg of cisplatin i.p. and 12-mg per 1-kg of purified PALP s.c. In the fourth group, starting on the 7th day after tumor implantation, mice were simultaneously administered 3-mg per 1-kg of cisplatin i.p. and 12-mg per 1-kg of highly purified AT s.c. In the fifth group, starting on the 7th day after tumor implantation, mice were simultaneously administered 3-mg per 1-kg of cisplatin i.p. and 12-mg per 1-kg of commercial holo-TF (h-TF, T 0665 in the Sigma catalog) s.c. In the sixth group, starting on the 7th day after tumor implantation, mice were simultaneously administered 3-mg per 1-kg of cisplatin i.p. and 12-mg per 1-kg of commercial apo-TF (a-TF, T 2036 in the Sigma catalog) s.c. Holo-TF contained 1,100-1,600 μg iron per gram protein while apo-TF was essentially iron-free. Each treatment with the proteins was also performed 6-times on every second day simultaneously with the cisplatin treatment. Each group included 7 animals. The mean values for total weight, tumor weight and body weight (the difference between total and tumor weight) are shown in gram in TABLE 7.

MXT mouse mammary tumor [2] = test: Cisplatin-treated MXT mouse mammary tumor model, CCDTHT (Example 10); assay type: in vivo; details: every second day from day 7: cisplatin 3-mg/kg i.p., CCDTHT 4.6-mg/kg s.c., highly purified PALP 14-mg/kg s.c.
Source text: as §1, §2
The mouse MXT mammary tumor was developed as described in Example 3. In the first group, animals remained untreated during the whole observation period. In the second group, starting on the 7th day after tumor implantation, mice were administered 3-mg per 1-kg of cisplatin i.p. 9-times every second day. In the third group, starting on the 7th day after tumor implantation, mice were simultaneously administered 3-mg per 1-kg of cisplatin i.p. and 4.6-mg per 1-kg of CCDTHT s.c. In the fourth group, starting on the 7th day after tumor implantation, mice were simultaneously administered 3-mg per 1-kg of cisplatin i.p. as well as 4.6-mg per 1-kg of CCDTHT s.c. and 14-mg per 1-kg of highly purified PALP s.c. Each treatment was performed 9-times on every second day. Each group included 7 animals. The mean values for total weight, tumor weight and body weight (the difference between total and tumor weight) are shown in TABLE 8.

## N.N.[Cl][Pt][Cl] [Cisplatin, cisplatin]
MXT mouse mammary tumor [1]; day 7 after transplantation
  Body weight (total weight minus tumor weight): 22.25 g
  Total weight: 22.6 g
  Tumor weight: 0.35 g
MXT mouse mammary tumor [1]; day 11 after transplantation
  Body weight (total weight minus tumor weight): 21.25 g
  Total weight: 22.7 g
  Tumor weight: 1.45 g
MXT mouse mammary tumor [1]; day 13 after transplantation
  Body weight (total weight minus tumor weight): 20.05 g
  Total weight: 21.9 g
  Tumor weight: 1.85 g
MXT mouse mammary tumor [1]; day 15 after transplantation
  Body weight (total weight minus tumor weight): 18.1 g
  Total weight: 20.8 g
  Tumor weight: 2.7 g
MXT mouse mammary tumor [1]; day 18 after transplantation
  Body weight (total weight minus tumor weight): 16.8 g
  Total weight: 20.3 g
  Tumor weight: 3.5 g
MXT mouse mammary tumor [2]; day 7 after transplantation
  Body weight (total weight minus tumor weight): 21.95 g
  Total weight: 22.20 g
  Tumor weight: 0.25 g
MXT mouse mammary tumor [2]; day 9 after transplantation
  Body weight (total weight minus tumor weight): 22.45 g
  Total weight: 23.00 g
  Tumor weight: 0.55 g
MXT mouse mammary tumor [2]; day 11 after transplantation
  Body weight (total weight minus tumor weight): 21.75 g
  Total weight: 23.10 g
  Tumor weight: 1.35 g
MXT mouse mammary tumor [2]; day 15 after transplantation
  Body weight (total weight minus tumor weight): 20.25 g
  Total weight: 22.90 g
  Tumor weight: 2.65 g
MXT mouse mammary tumor [2]; day 17 after transplantation
  Body weight (total weight minus tumor weight): 17.85 g
  Total weight: 21.60 g
  Tumor weight: 3.75 g
MXT mouse mammary tumor [2]; day 21 after transplantation
  Body weight (total weight minus tumor weight): 15.95 g
  Total weight: 20.60 g
  Tumor weight: 4.65 g
